Measurements: US12213959B2, “Use of 3-O-sulfamoyloxy-7β-methyl-d-homo-6-oxaestra-1,3,5(10),8(9)-tetraen-17a-one to treat breast cancer” (priority 2018, dated 2025)
Marks after values point to notes of the source that are not given here.

Key:
[1] = tested on: breast cancer cells MCF-7; conditions: cited from earlier work
[2] = tested on: MCF-7 human cells culture (breast adenocarcinoma); test: Proliferative activity of MCF-7 cells; format: cell-based
Experimental: The study analysis was carried out on an passaged MCF-7 human cells culture culture (breast adenocarcinoma). Normal human dermal fibroblasts (HDF) of early passages were used as a negative control.
The cells were cultivated in Carrel vials in DMEM/F12 medium (Biolot) with 1.0% of antibiotic-free fetal bovine embryonic serum (Biolot) added in the 5% CO2 atmosphere, at 37° C.
The cells were seeded on Carrel vials at 50×10^4 cells per flask. To study the proliferative activity of the cells under conditions of sulfatase inhibition, 24 hours after seeding the culture medium […], and then these tumor cell lines were incubated for various periods of time (24 to 72 hrs). The inhibitor was dissolved in DMSO. […] To exclude the cytotoxic effect of DMSO, a control sample comprising DMSO without sulfatase inhibitor was prepared.
To exclude nonspecific detrimental effects of the compounds, normal human skin fibroblasts were used. Then the cells were detached with the versene-trypsin solution (Biolot), plated onto Carrel vials containing a fresh complete culture medium. The cells were counted when untreated control cells reached the maximum cell density per unit of surface area of a culture flask (monolayer), and their number was set as 100%. The proliferative activity of all of the studied cell cultures exposed to sulfatase inhibitors was determined in triplicate.

[3] = tested on: breast tumours in FBV/N female mice, transgenic for HER-2/neu; test: Antitumour activity on breast tumours of HER-2/neu transgenic mice; format: in vivo; conditions: for Relative change of the average total volume of tumours to that of Day −1 (M): Tamoxifen-1, 4.0 mg/kg daily i.g.; for Average total volume of tumours in mice (M) / Average volume of tumors existing at the beginning of the experiment (M) / TGI (average total tumour volume) / TGI (average tumor volume): Tamoxifen-1 group; for Average total volume of tumours in mice (M) / Average volume of tumors existing at the beginning of the experiment (M): 4.0 mg/kg daily i.g.; for TGI (average total tumour volume) / TGI (average tumor volume): 4.0 mg/kg
Experimental: The study was carried out on female FVB mice transgenic for HER-2/neu of the conventional category, the strain being obtained from the mouse bank Charles River Laboratories (Italy).
Duration of the administration course was 27-28 days.
The control groups were given the olive oil (placebo).
The macroscopically detectable tumor nodes were measured in the animals once per week during the weighing process.

[4] = Body weight and tolerability during the antitumour study; conditions: for Average body weight of mice (M): 4.0 mg/kg daily i.g.; for Body weight: Tamoxifen-2, 4 mg/kg, end of observation
Experimental: The study medicament was administered i.g. using a metal atraumatic gavage (with the procedure corresponds to the oral route of administration in clinical settings). […] Ex tempore solutions of the medicament for administration were prepared in olive oil (refined olive oil supplemented with unrefined extra virgin olive oil available under Global Village “Clasico” trademark, lot L:183351116, expiry date 26.04.2020, BAIEO, Spain). The administered volume was 0.1 ml per 10 g of a mouse body weight (0.2 ml of a ready-to-use formulation for a mouse of 20 g). The medicament administration was started 24 hours after the randomization. Duration of the administration course was 27-28 days.
This dose corresponds to a human daily dose of 20 mg/kg.
The evaluation criteria included the clinical observation data, animals body weights, time of death (if applicable), tumor growth over time, pathomorphological examination data (verification of a neoplasm during autopsy, assessment of toxic effects by macroscopic presentation of changes in the internal organs).
The animals body weights were recorded before the first administration of the medicaments and then twice per week using a verified high-speed electronic laboratory balance Ohaus Scout Pro (USA) with a maximum load of 2000 g and a measurement pitch of 0.1 g.

uterine body = test: Hormonal effects on the uterine body (uterine weight); format: in vivo, mice; conditions: Tamoxifen-2, 4 mg/kg, end of observation
Experimental: The hormonal effects of the medicament on the uterine body was analyzed by comparing the uterine weight without uterine horns at the end of the observation period (Table 13).

[5] = in vivo; cited from earlier work

C[C@H]1Oc2cc(OS(N)(=O)=O)ccc2C2=C1C1=CCC[C@H](OS(N)(=O)=O)[C@@]1(C)CC2 [3,17αβ-disulfamoyloxy-7β-methyl-D-homo-6-oxa-estra-1,3,5(10), 8,14-pentaen]
growth of breast cancer cells MCF-7 [1]: inhibitor of the growth

CC/C(=C(\c1ccccc1)c1ccc(OCCN(C)C)cc1)c1ccccc1 [Tamoxifen, reference compound]
inhibition of proliferation of MCF-7 tumour cells, compared with steroid of formula 2 [2]: inhibited to the same extent | Relative change of the average total volume of tumours to that of Day −1 (M) ([3]; Day 6): 40% | Relative change of the average total volume of tumours to that of Day −1 (M) ([3]; Day 13): 80** % | Relative change of the average total volume of tumours to that of Day −1 (M) ([3]; Day −1): 0% | Average total volume of tumours in mice (M) ([3]; Day 6): 1 0.76 cm^3 | Average volume of tumors existing at the beginning of the experiment (M) ([3]; Day 6): 0.26 cm^3 | Average total volume of tumours in mice (M) ([3]; Day 13): 0.88 cm^3 | Average volume of tumors existing at the beginning of the experiment (M) ([3]; Day 13): 0.3 cm^3 | Average volume of tumors existing at the beginning of the experiment (M) ([3]; Day 20): 0.47 cm^3 | Average volume of tumors existing at the beginning of the experiment (M) ([3]; Day 27): 0.58 cm^3 | Average total volume of tumours in mice (M) ([3]; Day −1): 0.66 cm^3 | Average volume of tumors existing at the beginning of the experiment (M) ([3]; Day −1): 0.23 cm^3 | TGI (average total tumour volume) ([3]; vs Control-2, Day 6): −162% | TGI (average tumor volume) ([3]; vs Control-2, Day 6): −100% | TGI (average total tumour volume) ([3]; vs Control-2, Day 13): −35% | TGI (average tumor volume) ([3]; vs Control-2, Day 13): −7% | TGI (average total tumour volume) ([3]; vs Control-2, Day 20): −39% | TGI (average tumor volume) ([3]; vs Control-2, Day 20): −9% | TGI (average total tumour volume) ([3]; vs Control-2, Day 27): −21% | TGI (average tumor volume) ([3]; vs Control-2, Day 27 (end of observation)): 5% | TGI (average total tumour volume) ([3]; vs Control-2, Day −1): −247% | TGI (average tumor volume) ([3]; vs Control-2, Day −1): −188% | relative change in the total volume of tumours versus Control-3 group ([3]; Tamoxifen-2 group): exceeded the value across the Control-3 group | average volume of tumours exceeded the control group by ([3]; Tamoxifen-2 group, end of the experiment): 31% | Average body weight of mice (M) ([4]; Tamoxifen-1 group, Day 1): 27.7 g | Average body weight of mice (M) ([4]; Tamoxifen-1 group, Day 6): 26.5 g | Average body weight of mice (M) ([4]; Tamoxifen-1 group, Day 13): 27.3 g | Average body weight of mice (M) ([4]; Tamoxifen-1 group, Day 20): 27.5 g | Average body weight of mice (M) ([4]; Tamoxifen-1 group, Day 27): 28.2 g | Body weight ([4]; All mice): 34.2 ± 1.4 g | Body weight ([4]; estrous cycle phase E): 34.2 ± 1.4 g | Average body weight of mice (M) ([4]; Tamoxifen-2 group, Day 1): 31.0 g | Average body weight of mice (M) ([4]; Tamoxifen-2 group, Day 7): 32.0 g | Average body weight of mice (M) ([4]; Tamoxifen-2 group, Day 14): 32.9 g | Average body weight of mice (M) ([4]; Tamoxifen-2 group, Day 21): 32.8 g | Average body weight of mice (M) ([4]; Tamoxifen-2 group, Day 28): 34.2 g | Uterine weight (uterine body; All mice): 28 ± 1 MI | Uterine weight (uterine body; estrous cycle phase E): 28 ± 1 MI

C[C@]12CC[C@@H]3c4ccc(OS(N)(=O)=O)cc4CC[C@H]3[C@@H]1CCC2=O [estrone sulfamate]
uterotropic activity [5]: strong uterotropic activity
